Results as given in article PMC11012124, “Synthesis of Novel Triazine-Based Chalcones and 8,9-dihydro-7H-pyrimido[4,5-b][1,4]diazepines as Potential Leads in the Search of Anticancer, Antibacterial and Antifungal Agents” (International Journal of Molecular Sciences, 2024).

Experiments:
UACC-62 = assay: cells; settings: Homo sapiens, UACC-62, 48 h
M14 = assay: cells; settings: Homo sapiens, M14, 48 h
RPMI-8226 = assay: cells; settings: Homo sapiens, RPMI-8226, 48 h
PC-3 = assay: cells; settings: Homo sapiens, PC-3, 48 h
A498 = assay: cells; settings: Homo sapiens, A498, 48 h
EKVX = assay: cells; settings: Homo sapiens, 48 h
LOX IMVI = assay: cells; settings: Homo sapiens, 48 h
SNB-19 = assay: cells; settings: Homo sapiens, SNB-19, 48 h
BT-549 = assay: cells; settings: Homo sapiens, BT-549, 48 h
COLO 205 = assay: cells; settings: Homo sapiens, COLO 205, 48 h
MOLT-4 = assay: cells; settings: Homo sapiens, MOLT-4, 48 h
SF-539 = assay: cells; settings: Homo sapiens, SF-539, 48 h
HCT-116 = assay: cells; settings: Homo sapiens, HCT-116, 48 h
RXF 393 = assay: cells; settings: Homo sapiens, RXF 393, 48 h
NCI-H226 = assay: cells; settings: Homo sapiens, NCI-H226, 48 h
SF-295 = assay: cells; settings: Homo sapiens, SF-295, 48 h
MDA-MB-231/ATCC = assay: cells; settings: Homo sapiens, MDA-MB-231, 48 h
UACC-257 = assay: cells; settings: Homo sapiens, UACC-257, 48 h
HT29 = assay: cells; settings: Homo sapiens, HT-29, 48 h
786-0 = assay: cells; settings: Homo sapiens, 786-0, 48 h
NCI-H322M = assay: cells; settings: Homo sapiens, 48 h
U251 = assay: cells; settings: Homo sapiens, U-251, 48 h
ACHN = assay: cells; settings: Homo sapiens, 48 h
HCC-2998 = assay: cells; settings: Homo sapiens, HCC 2998, 48 h
MDA-MB-468 = assay: cells; settings: Homo sapiens, MDA-MB-468, 48 h
SNB-75 = assay: cells; settings: Homo sapiens, SNB-75, 48 h
A549/ATCC = assay: cells; settings: Homo sapiens, A549, 48 h
HOP-62 = assay: cells; settings: Homo sapiens, HOP-62, 48 h
HS 578T = assay: cells; settings: Homo sapiens, 48 h
HOP-92 = assay: cells; settings: Homo sapiens, HOP-92, 48 h
SK-MEL-5 = assay: cells; settings: Homo sapiens, SK-MEL-5, 48 h
SF-268 = assay: cells; settings: Homo sapiens, SF-268, 48 h
HCT-15 = assay: cells; settings: Homo sapiens, HCT-15, 48 h
60 cancer cell lines = assay: NCI-60 one-dose screen (10 μM); type: cell-based; settings: Homo sapiens; one dose of 10 μM, mean over 60 cancer cell lines; read-out: Mean Growth Percent (MGP)
From the text: Additionally, the mean of the growth percentages (MGP) of each compound against all the 60 cancer cell lines is also reported, which is used as one of the selection criteria to continue with tests at five concentration doses.

UO-31 = assay: cells; settings: Homo sapiens, UO-31, 48 h

## Nc1nc(N)c2c(n1)NC(c1ccccc1)CC(c1ccc(Nc3nc(NCCO)nc(Nc4ccc(Cl)cc4)n3)cc1)=N2 (stereo not drawn) [33a]
UACC-62
  GI50: 1.84 µM
UACC-62; read-out: LC50
  CC50: 6 µM
M14
  GI50: 1.84 µM
M14; read-out: LC50
  CC50: 6.1 µM
RPMI-8226
  GI50: 1.38 µM
RPMI-8226; read-out: LC50
  CC50: > 100 µM
PC-3
  GI50: 1.59 µM
A498
  GI50: 1.54 µM
A498; read-out: LC50
  CC50: 5.96 µM
EKVX
  GI50: 1.64 µM
EKVX; read-out: LC50
  CC50: 6.12 µM
LOX IMVI
  GI50: 1.54 µM
LOX IMVI; read-out: LC50, LOX IMVI, 48 h
  CC50: 5.66 µM
SNB-19
  GI50: 1.58 µM
SNB-19; read-out: LC50
  CC50: 5.64 µM
BT-549
  GI50: 1.77 µM
BT-549; read-out: LC50
  CC50: 5.81 µM
COLO 205
  GI50: 1.79 µM
COLO 205; read-out: LC50
  CC50: 6.09 µM
MOLT-4
  GI50: < 0.01 µM
MOLT-4; read-out: LC50
  CC50: > 100 µM
SF-539
  GI50: 1.6 µM
SF-539; read-out: LC50, SF-539, 48 h
  CC50: 5.85 µM
HCT-116
  GI50: 1.51 µM
HCT-116; read-out: LC50
  CC50: 5.33 µM
RXF 393
  GI50: 1.63 µM
NCI-H226
  GI50: 11.5 µM
NCI-H226; read-out: LC50
  CC50: 85 µM
SF-295
  GI50: 1.57 µM
SF-295; read-out: LC50
  CC50: 5.63 µM
MDA-MB-231/ATCC
  GI50: 1.75 µM
MDA-MB-231/ATCC; read-out: LC50
  CC50: 6.94 µM
UACC-257
  GI50: 1.9 µM
UACC-257; read-out: LC50
  CC50: 6.43 µM
HT29
  GI50: 1.77 µM
HT29; read-out: LC50
  CC50: 6.28 µM
786-0
  GI50: 1.63 µM
786-0; read-out: LC50
  CC50: 5.8 µM
NCI-H322M
  GI50: 1.63 µM
NCI-H322M; read-out: LC50
  CC50: 5.67 µM
U251; U251, 48 h
  GI50: 1.53 µM
U251; read-out: LC50
  CC50: 5.84 µM
ACHN
  GI50: 1.95 µM
ACHN; read-out: LC50
  CC50: 9.76 µM
HCC-2998
  GI50: 1.68 µM
HCC-2998; read-out: LC50
  CC50: 5.72 µM
MDA-MB-468
  GI50: 1.51 µM
MDA-MB-468; read-out: LC50
  CC50: 5.93 µM
SNB-75
  GI50: 1.56 µM
SNB-75; read-out: LC50
  CC50: 6.29 µM
A549/ATCC
  GI50: 2.84 µM
A549/ATCC; read-out: LC50
  CC50: > 100 µM
HOP-62
  GI50: 1.74 µM
HOP-62; read-out: LC50
  CC50: 6.07 µM
HS 578T
  GI50: 1.98 µM
HS 578T; read-out: LC50
  CC50: > 100 µM
HOP-92
  GI50: 1.42 µM
HOP-92; read-out: LC50
  CC50: 6.74 µM
SK-MEL-5
  GI50: 1.42 µM
SK-MEL-5; read-out: LC50
  CC50: 5.21 µM
SF-268
  GI50: 1.87 µM
HCT-15
  GI50: 1.38 µM
HCT-15; read-out: LC50
  CC50: 5.87 µM
60 cancer cell lines
  activity at 10 µM: 25.3%
UO-31
  GI50: 1.87 µM
UO-31; read-out: LC50
  CC50: 9.83 µM
